Patent US20230399312A1, “SUBSTITUTED PYRIMIDINES AND METHODS OF USE” (THERAVANCE BIOPHARMA R&D IP, LLC, priority 2020, published 2023)

Tests used:
[1] = molecular target: T1, recombinant human ALK5 (TGF-βR1) protein (Homo sapiens, UniProt P36897); assay: Biochemical ALK5 (TGF-βR1) assay to measure pKi (LANCE Ultra ULight kinase assay); details: apparent pKi, converted from pIC50 by Cheng-Prusoff
T1 construct: purchased Life Technologies PR9075A
T1 sequence (P36897 34-503): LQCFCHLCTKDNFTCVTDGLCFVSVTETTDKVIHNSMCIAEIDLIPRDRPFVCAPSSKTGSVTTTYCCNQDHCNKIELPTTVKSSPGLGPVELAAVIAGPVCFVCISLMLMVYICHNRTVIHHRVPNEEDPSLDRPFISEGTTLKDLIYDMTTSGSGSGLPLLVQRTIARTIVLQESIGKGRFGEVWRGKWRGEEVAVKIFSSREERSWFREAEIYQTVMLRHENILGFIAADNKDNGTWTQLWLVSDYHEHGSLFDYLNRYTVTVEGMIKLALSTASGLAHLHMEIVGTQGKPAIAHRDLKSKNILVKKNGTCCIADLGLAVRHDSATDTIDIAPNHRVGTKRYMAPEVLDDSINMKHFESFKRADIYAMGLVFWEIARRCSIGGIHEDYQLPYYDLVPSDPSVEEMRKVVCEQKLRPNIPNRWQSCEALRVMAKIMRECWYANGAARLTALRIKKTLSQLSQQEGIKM
How it was run: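 Dose-response series of each compound were preincubated with the kinase for 60 minutes at room temperature. Phosphorylation proceeded for 60 minutes at 37 °C after ATP addition, was quenched with EDTA, and was detected with a europium anti-phospho-Thr1342 antibody by TR-FRET; pKi was calculated from pIC50.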

[2] = test system: TGF-β-stimulated SMAD3 phosphorylation in BEAS-2B cells; assay: Cellular ALK5 potency assay, inhibition of TGF-β stimulated pSMAD3 formation in BEAS-2B cells; format: cell-based; details: Homo sapiens, pSMAD3, TGF-β 10 ng/mL, read-out: BEAS2B pIC50 (converted)
How it was run: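 BEAS-2B cells, HBSS/25 mM HEPES/1% BSA buffer; cpd 1 h, 37 °C; TGF-β 10 ng/mL final, 30 min; lysis, AlphaLISA pSMAD3 read next day. pIC50 vs stimulated no-compound baseline.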

| Ki [1] | Structure (SMILES) | IC50 [2] |
| --- | --- | --- |
| 0.0398 to 0.316 nM | Cc1cccc(-c2nc(Nc3ccnc(Nc4ccc(CC(=O)O)cc4)n3)c3cccn3n2)n1 [Compound 1018, 2-[4-[[4-[[2-(6-methyl-2-pyridyl)pyrrolo[2,1-f][1,2,4]triazin-4-yl]amino]pyrimidin-2-yl]amino]phenyl]acetic acid] | 25.1 to 158 nM |
| 0.398 to 3.16 nM | Cc1cccc(-c2nccc(Nc3ccnc(Nc4ccc(COCCO)cc4)n3)n2)n1 [Compound 513, 2-[[4-[[4-[[2-(6-methyl-2-pyridyl)pyrimidin-4-yl]amino]pyrimidin-2-yl]amino]phenyl]methoxy] ethanol] | 25.1 to 158 nM |
| 0.398 to 3.16 nM | Cc1cccc(-c2nccc(Nc3ccnc(Nc4cccc(C(=O)O[C@H]5CCN(C)C5)c4)n3)n2)n1 [Compound 308, [(3S)-1-methylpyrrolidin-3-yl] 3-[[4-[[2-(6-methyl-2-pyridyl)pyrimidin-4-yl]amino]pyrimidin-2-yl]amino]benzoate] | 200 to 1260 nM |
| 0.0398 to 0.316 nM | Cc1cccc(-c2nccc(Nc3ccnc(Nc4ccc(CN5CCN(CCO)CC5)cc4)n3)n2)n1 [Compound 301, 2-[4-[[4-[[4-[[2-(6-methyl-2-pyridyl)pyrimidin-4-yl]amino]pyrimidin-2-yl]amino]phenyl]methyl]piperazin-1-yl]ethanol] | 25.1 to 158 nM |
| 3.98 to 31.6 nM | CCOC(=O)Cc1cc(Nc2ccnc(Nc3ccc(N4CCNCC4)cc3)n2)nc(-c2cccc(C)n2)n1 [Compound 529, ethyl 2-[2-(6-methyl-2-pyridyl)-6-[[2-(4-piperazin-1-ylanilino)pyrimidin-4-yl]amino]pyrimidin-4-yl]acetate] | 25.1 to 158 nM |
| ≤ 0.0316 nM | Cc1cccc(-c2nccc(Nc3ccnc(Nc4ccc(N5CCN(C)CC5)cc4)n3)n2)n1 [Compound 153, N2-[4-(4-methylpiperazin-1-yl)phenyl]-N4-[2-(6-methyl-2-pyridyl)pyrimidin-4-yl]pyrimidine-2,4-diamine] | 25.1 to 158 nM |
| 0.0398 to 0.316 nM | Cc1cccc(-c2nccc(Nc3ccnc(Nc4ccc(N5CCC(C(=O)OCC6CNC6)CC5)cc4)n3)n2)n1 [Compound 368, azetidin-3-ylmethyl 1-[4-[[4-[[2-(6-methyl-2-pyridyl)pyrimidin-4-yl]amino]pyrimidin-2-yl]amino]phenyl]piperidine-4-carboxylate] | 25.1 to 158 nM |
| 0.0398 to 0.316 nM | Cc1cccc(-c2nccc(Nc3ccnc(Nc4ccc(CN5CCC(C(=O)O[C@H]6CCN(C)C6)CC5)cc4)n3)n2)n1 [Compound 297, [(3S)-1-methylpyrrolidin-3-yl] 1-[[4-[[4-[[2-(6-methyl-2-pyridyl)pyrimidin-4-yl]amino]pyrimidin-2-yl]amino]phenyl]methyl] piperidine-4-carboxylate] | 200 to 1260 nM |
| 0.0398 to 0.316 nM | Cc1cccc(-c2nccc(Nc3ccnc(Nc4ccc(C(=O)OC5CCNCC5)cc4)n3)n2)n1 [Compound 147, 4-piperidyl 4-[[4-[[2-(6-methyl-2-pyridyl)pyrimidin-4-yl]amino]pyrimidin-2-yl]amino]benzoate] | 25.1 to 158 nM |
| ≤ 0.0316 nM | Cc1cccc(-c2nccc(Nc3ccnc(Nc4ccc(C5CNCCN5)cc4)n3)n2)n1 (centres unmarked) [Compound 539, N4-[2-(6-methyl-2-pyridyl)pyrimidin-4-yl]-N2-(4-piperazin-2-ylphenyl)pyrimidine-2,4-diamine] | 25.1 to 158 nM |

Further lines, the molecule ahead of its results:

| Structure (SMILES) | Ki [1] | IC50 [2] |
| --- | --- | --- |
| Cc1cccc(-c2nccc(Nc3ccnc(Nc4nc(C(=O)OC[C@@H]5CCCNC5)cs4)n3)n2)n1 [Compound 580, [(3R)-3-piperidyl]methyl 2-[[4-[[2-(6-methyl-2-pyridyl)pyrimidin-4-yl]amino]pyrimidin-2-yl]amino]thiazole-4-carboxylate] | 0.398 to 3.16 nM | 200 to 1260 nM |
| Cc1cccc(-c2nccc(Nc3ccnc(Nc4ncc(C(=O)OC[C@H]5CCCCN5)s4)n3)n2)n1 [Compound 578, [(2R)-2-piperidyl]methyl 2-[[4-[[2-(6-methyl-2-pyridyl)pyrimidin-4-yl]amino]pyrimidin-2-yl]amino]thiazole-5-carboxylate] | 3.98 to 31.6 nM | 200 to 1260 nM |
| Cc1cccc(-c2nccc(Nc3ccnc(Nc4ccc(N5CCNCC5CC(=O)O[C@@H]5CCN(C)C5)cc4)n3)n2)n1 (mixture of isomers) [Compound 103, (R)-1-methylpyrrolidin-3-yl 2-(1-(4-((4-((2-(6-methylpyridin-2-yl)pyrimidin-4-yl)amino)pyrimidin-2-yl)amino)phenyl)piperazin-2-yl)acetate] | 0.398 to 3.16 nM | 200 to 1260 nM |
| Cc1cccc(-c2nccc(Nc3ccnc(Nc4cccc(C(=O)N5CCOCC5)c4)n3)n2)n1 [Compound 72, [3-[[4-[[2-(6-methyl-2-pyridyl)pyrimidin-4-yl]amino]pyrimidin-2-yl]amino]phenyl]-morpholino-methanone] | 0.398 to 3.16 nM | 25.1 to 158 nM |
| Cc1cccc(-c2nccc(Nc3ccnc(Nc4csc(C(=O)O[C@H]5CCN(C)C5)c4)n3)n2)n1 [Compound 217, [(3S)-1-methylpyrrolidin-3-yl] 4-[[4-[[2-(6-methyl-2-pyridyl)pyrimidin-4-yl]amino]pyrimidin-2-yl]amino]thiophene-2-carboxylate] | 0.0398 to 0.316 nM | 25.1 to 158 nM |
| COc1ccc(Nc2nccc(Nc3ccnc(-c4cccc(C)n4)n3)n2)cc1CN1C[C@@H](C)N[C@@H](C)C1 [Compound 431, N2-[4-methoxy-3-[[rac-(3R,5S)-3,5-dimethylpiperazin-1-yl]methyl]phenyl]-N4-[2-(6-methyl-2-pyridyl)pyrimidin-4-yl]pyrimidine-2,4-diamine] | 0.0398 to 0.316 nM | 25.1 to 158 nM |
| Cc1cccc(-c2nccc(Nc3ccnc(Nc4ccc(CN5C[C@H]6CC[C@@H](C5)N6)cc4)n3)n2)n1 [Compound 75, N4-[2-(6-methyl-2-pyridyl)pyrimidin-4-yl]-N2-[4-[[rac-(1S,5R)-3,8-diazabicyclo[3.2.1]octan-3-yl]methyl]phenyl]pyrimidine-2,4-diamine] | 0.0398 to 0.316 nM | 25.1 to 158 nM |
| Cc1cccc(-c2nccc(Nc3ccnc(Nc4nc(CN5CCC[C@@H](C(=O)O[C@H]6CCN(C)C6)C5)cs4)n3)n2)n1 [Compound 508, (S)-1-methylpyrrolidin-3-yl (R)-1-((2-((4-((2-(6-methylpyridin-2-yl)pyrimidin-4-yl)amino)pyrimidin-2-yl)amino)thiazol-4-yl)methyl)piperidine-3-carboxylate] | 0.398 to 3.16 nM | 25.1 to 158 nM |
| Cc1cccc(-c2nccc(Nc3ccnc(Nc4cncc(C(=O)OCC5CCNCC5)c4)n3)n2)n1 [Compound 606, 4-piperidylmethyl 5-[[4-[[2-(6-methyl-2-pyridyl)pyrimidin-4-yl]amino]pyrimidin-2-yl]amino]pyridine-3-carboxylate] | 0.398 to 3.16 nM | 25.1 to 158 nM |
| Cc1cccc(-c2nccc(Nc3ccnc(Nc4ccc(N5CCC(N)CC5)c(F)c4)n3)n2)n1 [Compound 343, N2-[4-(4-amino-1-piperidyl)-3-fluoro-phenyl]-N4-[2-(6-methyl-2-pyridyl)pyrimidin-4-yl]pyrimidine-2,4-diamine] | ≤ 0.0316 nM | 25.1 to 158 nM |
| Cc1cccc(-c2nccc(Nc3ccnc(Nc4ccc(C(=O)OCC5CNC5)cn4)n3)n2)n1 [Compound 564, azetidin-3-ylmethyl 6-[[4-[[2-(6-methyl-2-pyridyl)pyrimidin-4-yl]amino]pyrimidin-2-yl]amino]pyridine-3-carboxylate] | 3.98 to 31.6 nM | 200 to 1260 nM |
| Fc1ccc(Cl)cc1-c1nccc(Nc2ccnc(Nc3ccc(N4CCC(N5CCCC5)CC4)cc3)n2)n1 [Compound 412, N4-[2-(5-chloro-2-fluoro-phenyl)pyrimidin-4-yl]-N2-[4-(4-pyrrolidin-1-yl-1-piperidyl)phenyl]pyrimidine-2,4-diamine] | 0.0398 to 0.316 nM | 25.1 to 158 nM |
| Cc1cccc(-c2nccc(Nc3ccnc(Nc4cncc(C(=O)O[C@@H]5CCNC5)c4)n3)n2)n1 [Compound 549, (R)-pyrrolidin-3-yl 5-((4-((2-(6-methylpyridin-2-yl)pyrimidin-4-yl)amino)pyrimidin-2-yl)amino)nicotinate] | 0.398 to 3.16 nM | 25.1 to 158 nM |
| Cc1cccc(-c2nccc(Nc3ccnc(Nc4nc(C(=O)N5CCN[C@@H](CO)C5)cs4)n3)n2)n1 [Compound 349, [(3R)-3-(hydroxymethyl)piperazin-1-yl]-[2-[[4-[[2-(6-methyl-2-pyridyl)pyrimidin-4-yl]amino]pyrimidin-2-yl]amino]thiazol-4-yl]methanone] | 0.398 to 3.16 nM | 200 to 1260 nM |
| COC(=O)C1CN(CCNc2ccc(Nc3nccc(Nc4ccnc(-c5cccc(C)n5)n4)n3)cc2)CCN1C (centres unmarked) [Compound 236, methyl 1-methyl-4-[2-[4-[[4-[[2-(6-methyl-2-pyridyl)pyrimidin-4-yl]amino]pyrimidin-2-yl]amino]anilino]ethyl] piperazine-2-carboxylate] | 0.398 to 3.16 nM | 25.1 to 158 nM |
